Data set [1] has as its system isolated aortic rings of infarcted rats. The data set can be described thus: Endothelium-dependent relaxation in isolated aortic rings of treated MI rats. Conditions: aortic rings of MI rats after eight weeks of Ang-(1-7); P<0.05 versus MI control. Format: in vivo, rat. How it is done:
(§1) The Animal Research Committee of the University of Groningen approved this study. Left coronary artery ligations were performed in 39 male Sprague-Dawley rats weighing 250 to 300 g (Harlan; Zeist, the Netherlands).^14 Perioperative mortality was 49%. Two weeks after induction of MI, rats were randomly allocated to intravenous infusion of either Ang-(1-7) (24 μg/kg per hour; n=10) or saline (n=10) by osmotic minipumps (Alzet 2004). Sham-operated controls (n=10) received saline. After eight weeks of treatment, hemodynamic studies were performed under isoflurane anesthesia with a microtip pressure transducer,^15 coronary flow was measured in a Langendorff setup,^14 endothelial function was tested in isolated aortic rings,^14 and plasma Ang-(1-7) levels were measured by radioimmunoassay.^16
Endothelial dysfunction is a key feature in heart failure.^14 To examine the effects of Ang-(1-7) treatment on this aspect of cardiac failure, we investigated endothelium-dependent relaxation in isolated aortic rings. Phenylephrine elicited similar contractile responses in all three groups (data not shown). […] The relaxation in response to the endothelium independent vasodilator NaNO2 (10^−2 mol/L) was equal in the three groups (data not shown).

Data set [2] has as its system hearts of infarcted rats (Langendorff setup). The data set can be described thus: Ex vivo coronary flow in a Langendorff setup, hearts of treated MI rats. Details: species or system rat. The protocol: as §1
(§2) After eight weeks of treatment, cardiac function was measured in vivo in anesthetized rats. […] Coronary flow was measured ex vivo in a Langendorff setup. […] Coronary endothelial function and maximal coronary flow were tested by a two-minute infusion of 3×10^−8 mol/L bradykinin and 10^−5 mol/L adenosine, respectively.

Data set [3] in a line: Plasma Ang-(1-7) levels by radioimmunoassay at end of intravenous infusion. Conditions: MI rats, iv infusion 24 μg/kg per hour. Format: in vivo, rat. The protocol: as §1
The subject of data set [4] is male Sprague-Dawley rats with myocardial infarction (left coronary artery ligation). The data set can be described thus: General characteristics and histology after eight weeks of treatment in rat coronary artery ligation (MI) model. In kind it is in vivo. The protocol:
as §1
Midventricular slices were processed for histochemical analysis. Infarct size was determined on picrosirius red/fast green-stained sections and was expressed as the percentage of scar length of total left ventricular circumference.^14 Rats with infarcts smaller than 20% were excluded (n=3 for Ang-(1-7) and n=1 for saline-treated rats). Capillary density was determined on sections stained with biotin-labeled Griffonia siinplicifolia lectin I (GSL-I) and hematoxylin and was expressed as the number of capillaries per mm^2. Myocyte cross-sectional area was measured on hematoxylin/eosin-stained sections.
Data are presented as mean±SEM. Statistical analysis between the groups was performed by one-way ANOVA followed by Bonferroni's t test. Differences in dose-response curves were tested by ANOVA for repeated measures with Greenhouse-Geisser correction for asphericity. Differences were considered significant at P<0.05.

For data set [5] the test system is unchanged. The data set can be described thus: In vivo hemodynamic studies under isoflurane anesthesia with microtip pressure transducer in MI rats. The arrangement: species or system rat. The protocol: as §1, §2
The mark [6] stands for this setting: Ang-(1-7) 24 μg/kg per hour iv, eight weeks, mean ± SEM.

For the molecule `CC[C@H](C)[C@H](NC(=O)[C@H](Cc1ccc(O)cc1)NC(=O)[C@@H](NC(=O)[C@H](CCCNC(=N)N)NC(=O)[C@@H](N)CC(=O)O)C(C)C)C(=O)N[C@@H](Cc1c[nH]cn1)C(=O)N1CCC[C@H]1C(=O)O` [Ang-(1-7), angiotensin-(1-7)], in data set [1], the “metacholine-induced relaxation of phenylephrine pre-contracted aortic rings, in words” value is reported as “identical to sham rats”. Also, the “baseline coronary flow compared with sham-operated hearts, in words” value in data set [2] (Langendorff, MI rats after eight weeks of Ang-(1-7)) is “almost completely preserved”. The “maximal coronary flow after adenosine infusion compared with sham, in words” value in data set [2] (Langendorff, adenosine 10^−5 mol/L, MI rats after eight weeks of Ang-(1-7)) is given as “the difference did not reach statistical significance”. Besides, the “bradykinin-dependent coronary flow compared with sham, in words” value in data set [2] (Langendorff, bradykinin 3×10^−8 mol/L, MI rats after eight weeks of Ang-(1-7)) was “not significantly impaired”. Besides, the “Ex vivo coronary flow, baseline” value in data set [2] (hearts of MI rats after eight weeks of Ang-(1-7) 24 μg/kg per hour iv, baseline) is listed as 8.2 ± 0.6 ml/min per g ventricular weight. In addition, the “Ex vivo coronary flow, adenosine 10^−5 M” value in data set [2] (hearts of MI rats after eight weeks of Ang-(1-7), two-minute infusion of adenosine 10^−5 M (maximal coronary flow)) is 12.3 ± 0.8 ml/min per g ventricular weight. The “Ex vivo coronary flow, bradykinin 3 × 10^−8 M” value in data set [2] (hearts of MI rats after eight weeks of Ang-(1-7), two-minute infusion of bradykinin 3 × 10^−8 M (coronary endothelial function)) is given as 11.1 ± 0.7 ml/min per g ventricular weight. The “[Ang-(1-7)] plasma concentration of angiotensin-(1-7)” value in data set [3] (end of eight weeks of treatment, mean ± SEM) amounted to 917.8 ± 194.1 pmol/L. In data set [3] (end of treatment), the “increase of plasma levels of the peptide compared with MI controls” value is recorded as 40 fold. Further, in data set [3] (male, Sprague-Dawley, rat, plasma, 24 ug/kg per hour, end of eight weeks of treatment, mean ± SEM, read-out: [Ang-(1-7)] plasma concentration of angiotensin-(1-7)), the level at time molar at 1344 h came to 0.918 ± 0.194 nM. In addition, in data set [4] (Ang-(1-7) 24 μg/kg per hour iv, eight weeks, GSL-I lectin stain, mean ± SEM), the capillary density came to 2578 ± 176 N/mm^2. Further, the myocyte cross-sectional area in data set [4] (Ang-(1-7) 24 μg/kg per hour iv, eight weeks, hematoxylin/eosin-stained sections, mean ± SEM) came out at 409 ± 21. Besides, in data set [4] (setting [6]), the “LVW/BW (left ventricular weight body weight ratio)” value was determined as 3.42 ± 0.10 mg/g and the “infarct size (percentage of scar length of total left ventricular circumference)” value is on record as 29.6 ± 3.3%. In data set [4] (eight weeks of Ang-(1-7)), the “myocyte cross-sectional area increase after infarction, in words” value is “attenuated to a nonsignificant level”. In data set [4] (eight weeks of treatment), the “capillary density versus saline-treated MI group, in words” value is “did not differ” and the “infarct size versus saline-treated MI group, in words” value is reported as “did not differ”. In addition, in data set [5] (MI rats infused with Ang-(1-7), eight weeks), the “mean arterial pressure, in words” value is “an increase in mean arterial pressure was found”. Also, the “reduction in left ventricular end-diastolic pressure” value in data set [5] (MI rats, eight weeks of Ang-(1-7) treatment) came out at 40%. The “cardiac function (hemodynamic parameters LVP, LVEDP, MAP, +dP/dt, −dP/dt) compared with sham, in words” value in data set [5] (anesthetized MI rats after eight weeks of treatment) is reported as “none of these parameters were significantly deteriorated, except the systolic dP/dt”.

Values taken from patent publication US20050119180A1, “Use of angiotensin 1-7 for enhancing cardiac function” (priority 2002, published 2005).
